Read-outs that look alike come from different tables or passages of the source.
Legend:
LasB = biological target: T1, LasB (Pseudomonas aeruginosa, UniProt P14756); experiment: Elastin assay to determine % inhibition (Elastin Congo-Red, dialysed culture supernatant); format: biochemical, P. aeruginosa PAO1; conditions: read-out: Elastin hydrolysis % inhibition @ 50 / 25 µM inhibitor concentration
T1 construct: uses as source of enzyme dialysed supernatant from P. aeruginosa PAO1; endogenous in cells; host or cells: P. aeruginosa PAO1 culture supernatant, filtered and dialysed
Method: Experiments were therefore conducted (1) to measure the potency of inhibition of compounds of the invention against purified Pseudomonas aeruginosa LasB enzyme and also experiments were conducted (2) to measure the ability of compounds of the invention to inhibit LasB-catalysed elastin degradation. The first assay uses a commercial fluorescent synthetic peptide and purified LasB enzyme. The LasB hydrolysis kinetics are measured allowing the determination of the IC50 and Ki of the inhibitors; the second is a more physiological assay using dialysed Pseudomonas aeruginosa supernatant as source of enzyme, plus its natural substrate Elastin. It is an "end point assay" that determines the percentage of LasB inhibition by each compound for one particular time point and inhibitor concentration. Technical details are described below:
The Elastin assay uses as source of enzyme dialysed supernatant from P. aeruginosa PAO1 and the Elastin Congo-Red as substrate. The natural LasB substrate, elastin, is complexed with the congo-red dye (Elastin Congo-Red, ECR). The elastolysis activity from the culture supernatant will degrade elastin and release the congo-red dye into the supernatant. This red dye release can be measured with a spectrophotometer.
Method: To determine LasB elastase activity and assess compound inhibition, an overnight culture of P. aeruginosa strain PAO1 is diluted in LB medium. After reaching an OD600nm of 0.6, this culture is diluted and incubated for additional 18-24 hours in a shaking incubator. Culture supernatants are recovered by centrifugation and filtrated through a […] filter. These supernatants are dialysed (filtration molecules < 20kDa) into a 50 mM Tris-HCl pH 7.4, 2.5 mM CaCl2 solution at 4°C under agitation for 24 hours. Supernatant dialysed is then mixed volume/volume with the ECR suspension (20 mg/mL of ECR in 100 mM Tris-HCl pH 7.4 buffer supplemented with 1 mM CaCl2) supplemented with Triton X100 (final concentration of 0.01%) in presence of DMSO (positive control) and/or different concentrations of compound (routinely 50 to 1.56 µM). As a negative control, the dialysed supernatant is replaced by Tris-HCl solution (50 mM Tris-HCl pH 7.4, 2.5 mM CaCl2). The mixed reaction is then incubated overnight in a 37°C shaking incubator. The reaction supernatant is recovered by centrifugation and the release of congo-red is measured by its absorbance at 495 nm (OD495nm).
Percentage inhibition is determined using the following equation: ((OD495nmvalue of positive control−OD495nmvalue of negative control)−(OD495nmvalue of treated supernatant−OD495nmvalue of positive control))/(OD495nmvalue of positive control−OD495nmvalue of negative control) × 100. [formula]

[1] = biological target: T2, purified LasB protein from P. aeruginosa (Pseudomonas aeruginosa, UniProt P14756); experiment: Fluorometric assay to determine Ki (Abz-Ala-Gly-Leu-Ala-p-Nitro-Benzyl-Amide substrate); format: biochemical
T2 construct: purchased Merck or Charles River Laboratories
Summary of the method: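 Purified P. aeruginosa LasB (10–140 ng/ml) with 250 µM Abz-Ala-Gly-Leu-Ala-p-nitrobenzylamide in 50 mM Tris-HCl pH 7.4, 2.5 mM CaCl2, 0.01% Triton X100, 37 °C; hydrolysis fluorescence (Ex 340/Em 415 nm) followed over 30 min, inhibitor 0.0016–200 µM. Ki = IC50/(1+[S]/Km), Km 214 µM.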

T1 sequence (P14756 198-498): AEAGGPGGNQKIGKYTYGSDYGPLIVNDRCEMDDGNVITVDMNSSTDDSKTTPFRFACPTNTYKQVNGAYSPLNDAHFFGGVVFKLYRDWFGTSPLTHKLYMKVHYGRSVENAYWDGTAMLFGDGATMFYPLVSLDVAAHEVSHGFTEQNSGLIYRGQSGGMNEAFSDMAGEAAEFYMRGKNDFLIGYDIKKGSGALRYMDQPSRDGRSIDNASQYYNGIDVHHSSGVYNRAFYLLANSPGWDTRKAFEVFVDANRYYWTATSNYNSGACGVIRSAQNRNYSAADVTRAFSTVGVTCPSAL
T2 sequence (P14756 198-498): as above

| SMILES | inhibition at 25 µM (LasB) [%] | Ki [1] [nM] | Ki ([1]; Ki calculated from IC50, [S] = 250 µM, Km = 214 µM, 37°C, pH 7.4) [nM] |
| --- | --- | --- | --- |
| COc1cc(OCC(=O)N2CC([N+](C)(C)C)C2)ccc1-c1csc(CNC(=O)C2(CC(=O)[O-])Cc3cc(F)c(F)cc3C2)n1 [Example 64, 2-[5,6-difluoro-2-[[4-[2-methoxy-4-[2-oxo-2-[3-(trimethylammonio)azetidin-1-yl]ethoxy]phenyl]thiazol-2-yl]methylcarbamoyl]indan-2-yl]acetate] | 60 to 75 | 50 to 200 |  |
| CN1CCN(S(=O)(=O)c2ccc(-c3csc(CNC(=O)C4(CC(=O)O)Cc5ccccc5C4)n3)cc2)CC1 [Example 130, 2-[2-[[4-[4-(4-methylpiperazin-1-yl)sulfonylphenyl]thiazol-2-yl]methylcarbamoyl]indan-2-yl]acetic acid] | 60 to 75 | 50 to 200 |  |
| CS(=O)(=O)c1cc(-c2csc(CNC(=O)C3(CC(=O)O)Cc4ccccc4C3)n2)ccc1OCCN1CCOCC1 [Example 135, 2-[2-[[4-[3-methylsulfonyl-4-(2-morpholinoethoxy)phenyl]thiazol-2-yl]methylcarbamoyl]indan-2-yl]acetic acid] | > 75 | < 50 |  |
| COc1cc(OCCC[N+]2(C)CCOCC2)ccc1-c1csc(CNC(=O)C2(CC(=O)[O-])Cc3cc(F)c(F)cc3C2)n1 [Example 70, 2-[5,6-difluoro-2-[[4-[2-methoxy-4-[3-(4-methylmorpholin-4-ium-4-yl)propoxy]phenyl]thiazol-2-yl]methylcarbamoyl]indan-2-yl]acetate] | 60 to 75 | 50 to 200 |  |
| CN1CCN(S(=O)(=O)c2cc(-c3csc(CNC(=O)C4(CC(=O)O)Cc5ccccc5C4)n3)ccc2OCCCN2CCOCC2)CC1 [Example 133, 2-[2-[[4-[3-(4-methylpiperazin-1-yl)sulfonyl-4-(3-morpholinopropoxy)phenyl]thiazol-2-yl]methylcarbamoyl]indan-2-yl]acetic acid] | 60 to 75 | < 50 |  |
| COc1cc(OCCN2CCN(C)C(=O)C2)ccc1-c1csc(CNC(=O)C2(CC(=O)O)Cc3ccccc3C2)n1 [Example 83, 2-[2-[[4-[2-methoxy-4-[2-(4-methyl-3-oxo-piperazin-1-yl)ethoxy]phenyl]thiazol-2-yl]methylcarbamoyl]indan-2-yl]acetic acid] | > 75 | < 50 |  |
| O=C(O)CC1(C(=O)NCc2nc(-c3ccncc3)cs2)Cc2ccccc2C1 [Example 95, 2-[2-[[4-(4-pyridyl)thiazol-2-yl]methylcarbamoyl]indan-2-yl]acetic acid] | 60 to 75 | 200 to 10000 |  |
| CN1C[C@@H]2CN(c3ccc(-c4csc(CNC(=O)C5(CC(=O)O)Cc6ccccc6C5)n4)cc3)C[C@@H]2C1 [Example 30, 2-[2-[[4-[4-[(3aS,6aR)-2-methyl-1,3,3a,4,6,6a-hexahydropyrrolo[3,4-c]pyrrol-5-yl]phenyl]thiazol-2-yl]methylcarbamoyl]indan-2-yl]acetic acid] | 10 to 60 | 200 to 10000 |  |
| O=C(O)CC1(C(=O)NCc2nc(-c3ccccc3OCCO)cs2)Cc2ccccc2C1 [Example 13, 2-[2-[[4-[2-(2-hydroxyethoxy)phenyl]thiazol-2-yl]methylcarbamoyl]indan-2-yl]acetic acid] | 60 to 75 | 50 to 200 |  |
| O=C(O)CC1(C(=O)NCc2nc(-c3ccc(OCCCN4CCOCC4)cc3)cs2)Cc2ccccc2C1 [Example 55, 2-[2-[[4-[4-(3-morpholinopropoxy)phenyl]thiazol-2-yl]methylcarbamoyl]indan-2-yl]acetic acid] | 60 to 75 | 50 to 200 |  |
| COc1cc(OCCC[N+]2(C)CCCC2)ccc1-c1csc(CNC(=O)C2(CC(=O)[O-])Cc3cc(F)c(F)cc3C2)n1 [Example 73, 2-[5,6-difluoro-2-[[4-[2-methoxy-4-[3-(1-methylpyrrolidin-1-ium-1-yl)propoxy]phenyl]thiazol-2-yl]methylcarbamoyl]indan-2-yl)acetate] | 60 to 75 | 50 to 200 |  |
| O=C(O)CC1(C(=O)NCc2nc(-c3ccc(Cl)cc3)cs2)Cc2ccccc2C1 [Example 7, 2-[2-[[4-(4-chlorophenyl)thiazol-2-yl]methylcarbamoyl]indan-2-yl]acetic acid] | 60 to 75 | 50 to 200 |  |
| Cc1cc(-c2csc(CNC(=O)C3(CC(=O)O)Cc4ccccc4C3)n2)n[nH]1 [Example 98, 2-[2-[[4-(5-methyl-1H-pyrazol-3-yl)thiazol-2-yl]methylcarbamoyl]indan-2-yl] acetic acid] | 60 to 75 | 200 to 10000 |  |
| COc1cc(OCC(=O)N2CCN(C)CC2)ccc1-c1csc(CNC(=O)C2(CC(=O)O)Cc3ccccc3C2)n1 [Example 63, 2-[2-[[4-[2-methoxy-4-[2-(4-methylpiperazin-1-yl)-2-oxo-ethoxy]phenyl]thiazol-2-yl]methylcarbamoyl]indan-2-yl]acetic acid] | > 75 | 50 to 200 |  |
| COc1ccc(-c2csc(CNC(=O)C3(CC(=O)O)Cc4ccccc4C3)n2)cc1S(=O)(=O)N1CCN(C)CC1 [Example 122] | > 75 |  | 50 to 200 |
| O=C(O)CC1(C(=O)NCc2nc(-c3cnn(CCCN4CCCOCC4)c3)cs2)Cc2ccccc2C1 [Example 109, 2-[2-[[4-[1-[3-(1,4-oxazepan-4-yl)propyl]pyrazol-4-yl]thiazol-2-yl]methylcarbamoyl]indan-2-yl]acetic acid] | 60 to 75 | 50 to 200 |  |
| COc1cc(OCCc2n(C)cc[n+]2C)ccc1-c1csc(CNC(=O)C2(CC(=O)[O-])Cc3cc(F)c(F)cc3C2)n1 [Example 86, 2-[2-[[4-[4-[2-(1,3-dimethylimidazol-1-ium-2-yl)ethoxy]-2-methoxy-phenyl]thiazol-2-yl]methylcarbamoyl]-5,6-difluoro-indan-2-yl]acetate] | 60 to 75 | 50 to 200 |  |
| O=C(O)CC1(C(=O)NCc2nc(-c3ccccc3)cs2)Cc2cc(F)c(F)cc2C1 [Example 3, 2-[5,6-difluoro-2-[(4-phenylthiazol-2-yl)methylcarbamoyl]indan-2-yl]acetic acid] | > 75 | < 50 |  |
| COc1cc(OCC[N+]2(C)CCOCC2)ccc1-c1csc(CNC(=O)C2(CC(=O)[O-])Cc3cc(F)c(F)cc3C2)n1 [Example 68, 2-[5,6-difluoro-2-[[4-[2-methoxy-4-[2-(4-methylmorpholin-4-ium-4-yl)ethoxy]phenyl]thiazol-2-yl]methylcarbamoyl]indan-2-yl]acetate] | 60 to 75 | 50 to 200 |  |
| O=C(O)CC1(C(=O)NCc2nc(-c3ccc(O)cc3)cs2)Cc2ccccc2C1 [Example 11, 2-[2-[[4-(4-hydroxyphenyl)thiazol-2-yl]methylcarbamoyl]indan-2-yl]acetic acid] | 60 to 75 | 50 to 200 |  |
| COc1cc(OCCN2CCOCC2)ccc1-c1csc(CNC(=O)C2(CC(=O)O)Cc3ccccc3C2)n1 [Example 76, 2-[2-[[4-[2-methoxy-4-(2-morpholinoethoxy)phenyl]thiazol-2-yl]methylcarbamoyl]indan-2-yl]acetic acid] | > 75 | < 50 |  |
| O=C(O)CC1(C(=O)NCc2nc(-c3ccccn3)cs2)Cc2ccccc2C1 [Example 9, 2-[2-[[4-(2-pyridyl)thiazol-2-yl]methylcarbamoyl]indan-2-yl]acetic acid] | 60 to 75 | 200 to 10000 |  |
| COc1cc(OCc2ccc[n+](C)c2)ccc1-c1csc(CNC(=O)C2(CC(=O)[O-])Cc3ccccc3C2)n1 [Example 77, 2-[2-[[4-[2-methoxy-4-[(1-methylpyridin-1-ium-3-yl)methoxy]phenyl]thiazol-2-yl]methylcarbamoyl]indan-2-yl]acetate] | 10 to 60 | 50 to 200 |  |
| COc1cc(OCCc2nccn2C)ccc1-c1csc(CNC(=O)C2(CC(=O)O)Cc3ccccc3C2)n1 [Example 85, 2-[2-[[4-[2-methoxy-4-[2-(1-methylimidazol-2-yl)ethoxy]phenyl]thiazol-2-yl]methylcarbamoyl]indan-2-yl]acetic acid] | 60 to 75 | 50 to 200 |  |

Reference: patent EP3628672A1 (priority 2018, dated 2020)
